pKi: −log10 of the molar value.
Columns and labels:
Protease [1] = molecular target: T1, Protease (Human immunodeficiency virus 1, UniProt Q9YQ12); assay: Competitive inhibition of HIV1 protease using fluorogenic substrate DABCYL- -abu-SQNYPIVQ-EDANS assessed as dissociation for dimer-inhibitor complex at pH 4.7 by fluorimetric assay
[2] = Retention time of the compound; format: physicochemical
Protease [3] = molecular target: T1, Protease; assay: Dimerziation inhibition of HIV1 wild type protease using fluorogenic substrate DABCYL- -abu-SQNYPIVQ-EDANS at pH 4.7 by fluorimetric assay
[4] = molecular target: Protease (Human immunodeficiency virus 1) (UniProt Q9YQ12); assay: Competitive inhibition of HIV1 protease using fluorogenic substrate DABCYL- -abu-SQNYPIVQ-EDANS assessed as dissociation for dimer-inhibitor complex at 28 uM at pH 4.7 by fluorimetric assay
[5] = Dimerziation inhibition of HIV1 ANAM11 protease mutant using fluorogenic substrate DABCYL- -abu-SQNYPIVQ-EDANS at pH 4.7 by fluorimetric assay; set-up: species or system Human immunodeficiency virus 1
[6] = Metabolic stability in Roswell park memorial institute medium containing 20% fetal calf serum assessed as degradation after 48 hrs by HPLC analysis; format: ADME; settings: cattle

pKi (Protease [1]) | Retention_time [2] [min] | inhibition [4] [%] | SMILES | pKi (Protease [3]) | pKi [5] | Stability [6]
4.82 | 11.2 |  | COc1ccc(NC(C)=O)cc1C(=O)NNC(=O)[C@H](CCCCNC(=O)CCCOc1ccc2cc(CNC(=N)N)c(OCCCC(=O)NCCCC[C@H](NC(=O)OC(C)(C)C)C(=O)NNC(=O)c3cc(NC(C)=O)ccc3OC)cc2c1)NC(=O)OC(C)(C)C |  |  | 
 | 12.7 |  | COc1ccc(NC(C)=O)cc1C(=O)NNC(=O)[C@H](CCCCNC(=O)CCCOc1ccc2cc(NCC(O)CO)c(OCCCC(=O)NCCCC[C@H](NC(=O)OC(C)(C)C)C(=O)NNC(=O)c3cc(NC(C)=O)ccc3OC)cc2c1)NC(=O)OC(C)(C)C (some centres not stated) | 5.56 |  | 
 | 11.1 | 18 | CNCC(=O)Nc1cc2ccc(OCCCC(=O)NCCCC[C@H](NC(=O)OC(C)(C)C)C(=O)NNC(=O)c3cc(NC(C)=O)ccc3OC)cc2cc1OCCCC(=O)NCCCC[C@H](NC(=O)OC(C)(C)C)C(=O)NNC(=O)c1cc(NC(C)=O)ccc1OC |  |  | 
 | 14.2 |  | COc1ccc(NC(C)=O)cc1C(=O)NNC(=O)[C@@H](NC(=O)CCCOc1ccc2cc(NCC3COC(C)(C)O3)c(OCCCC(=O)N[C@H](C(=O)NNC(=O)c3cc(NC(C)=O)ccc3OC)C(C)C)cc2c1)C(C)C (some centres not stated) | 5.57 |  | 
 | 11.4 | 0 | COc1ccc(NC(C)=O)cc1C(=O)NNC(=O)[C@H](CCCCNC(=O)CCCOc1ccc2cc(CCCN(C)C)c(OCCCC(=O)NCCCC[C@H](NC(=O)OC(C)(C)C)C(=O)NNC(=O)c3cc(NC(C)=O)ccc3OC)cc2c1)NC(=O)OC(C)(C)C |  |  | 
 | 11.2 | 18 | COc1ccc(NC(C)=O)cc1C(=O)NNC(=O)[C@H](CCCCNC(=O)CCCOc1ccc2cc(NC(=O)CN3CCNCC3)c(OCCCC(=O)NCCCC[C@H](NC(=O)OC(C)(C)C)C(=O)NNC(=O)c3cc(NC(C)=O)ccc3OC)cc2c1)NC(=O)OC(C)(C)C |  |  | 
 | 13.8 | 0 | COc1ccc(NC(C)=O)cc1C(=O)NNC(=O)[C@H](CCCCNC(=O)CCCOc1ccc2cc(NC(=O)CN3CCN(C(=O)OCc4ccccc4)CC3)c(OCCCC(=O)NCCCC[C@H](NC(=O)OC(C)(C)C)C(=O)NNC(=O)c3cc(NC(C)=O)ccc3OC)cc2c1)NC(=O)OC(C)(C)C |  |  | 

The next lines start with the compound.

SMILES | pKi (Protease [1]) | Retention_time [2] [min] | inhibition [4] [%] | pKi (Protease [3]) | pKi [5] | Stability [6]
COc1ccc(NC(C)=O)cc1C(=O)NNC(=O)[C@@H](NC(=O)CCCOc1ccc2ccc(OCCCC(=O)N[C@H](C(=O)NNC(=O)c3cc(NC(C)=O)ccc3OC)C(C)C)cc2c1)C(C)C |  | 13.8 |  | 6.66 |  | 
COc1ccc(NC(C)=O)cc1C(=O)NNC(=O)[C@H](CCCCNC(=O)CCCOc1ccc2ccc(OCCCC(=O)NCCCC[C@H](NC(=O)OC(C)(C)C)C(=O)NNC(=O)c3cc(NC(C)=O)ccc3OC)cc2c1)NC(=O)OC(C)(C)C |  | 14.8 |  | 6.55 | 5.70 | 
COc1ccc(NC(C)=O)cc1C(=O)NNC(=O)[C@@H](NC(=O)CCCOc1ccc2cc(N)c(OCCCC(=O)N[C@H](C(=O)NNC(=O)c3cc(NC(C)=O)ccc3OC)C(C)C)cc2c1)C(C)C |  | 10.6 |  | 6.40 | 6.03 | 
COc1ccc(NC(C)=O)cc1C(=O)NNC(=O)[C@@H](NC(=O)CCCOc1ccc2cc(NCC(O)CO)c(OCCCC(=O)N[C@H](C(=O)NNC(=O)c3cc(NC(C)=O)ccc3OC)C(C)C)cc2c1)C(C)C (some centres not stated) |  | 11.3 |  | 6.22 | 6.03 | Stable
COc1ccc(NC(C)=O)cc1C(=O)NNC(=O)[C@H](CCCCNC(=O)CCCOc1ccc2cc(CCCN)c(OCCCC(=O)NCCCC[C@H](NC(=O)OC(C)(C)C)C(=O)NNC(=O)c3cc(NC(C)=O)ccc3OC)cc2c1)NC(=O)OC(C)(C)C |  | 11.4 | 35 |  |  | 
COc1ccc(NC(C)=O)cc1C(=O)NNC(=O)[C@H](CCCCNC(=O)CCCOc1ccc2cc(NCC3COC(C)(C)O3)c(OCCCC(=O)NCCCC[C@H](NC(=O)OC(C)(C)C)C(=O)NNC(=O)c3cc(NC(C)=O)ccc3OC)cc2c1)NC(=O)OC(C)(C)C (some centres not stated) |  | 15.2 |  | 5.23 |  | 
COc1ccc(NC(C)=O)cc1C(=O)NNC(=O)[C@H](CCCCNC(=O)CCCOc1ccc2cc(N)c(OCCCC(=O)NCCCC[C@H](NC(=O)OC(C)(C)C)C(=O)NNC(=O)c3cc(NC(C)=O)ccc3OC)cc2c1)NC(=O)OC(C)(C)C |  | 12.2 |  | 6.26 | 6.08 | Stable
COc1ccc(NC(C)=O)cc1C(=O)NNC(=O)[C@H](CCCCNC(=O)CCCOc1ccc2cc(CN)c(OCCCC(=O)NCCCC[C@H](NC(=O)OC(C)(C)C)C(=O)NNC(=O)c3cc(NC(C)=O)ccc3OC)cc2c1)NC(=O)OC(C)(C)C |  | 11.1 |  | 6.52 | 5.61 | 

Reference: ChEMBL document CHEMBL3580628, “Introduction of polar groups on the naphthalene scaffold of molecular tongs inhibiting wild-type and mutated HIV-1 protease dimerization” (Medchemcomm, 2014)
